{
  "source": "ChEMBL document CHEMBL5465560",
  "about": "“Selectivity Literature for EUbOPEN Chemogenomic Library” (2024)",
  "key": {"[1]": {"molecular_target": "Insulin-like growth factor 1 receptor (Homo sapiens, UniProt P08069)", "sequence (P08069 31-736 limits assumed)": "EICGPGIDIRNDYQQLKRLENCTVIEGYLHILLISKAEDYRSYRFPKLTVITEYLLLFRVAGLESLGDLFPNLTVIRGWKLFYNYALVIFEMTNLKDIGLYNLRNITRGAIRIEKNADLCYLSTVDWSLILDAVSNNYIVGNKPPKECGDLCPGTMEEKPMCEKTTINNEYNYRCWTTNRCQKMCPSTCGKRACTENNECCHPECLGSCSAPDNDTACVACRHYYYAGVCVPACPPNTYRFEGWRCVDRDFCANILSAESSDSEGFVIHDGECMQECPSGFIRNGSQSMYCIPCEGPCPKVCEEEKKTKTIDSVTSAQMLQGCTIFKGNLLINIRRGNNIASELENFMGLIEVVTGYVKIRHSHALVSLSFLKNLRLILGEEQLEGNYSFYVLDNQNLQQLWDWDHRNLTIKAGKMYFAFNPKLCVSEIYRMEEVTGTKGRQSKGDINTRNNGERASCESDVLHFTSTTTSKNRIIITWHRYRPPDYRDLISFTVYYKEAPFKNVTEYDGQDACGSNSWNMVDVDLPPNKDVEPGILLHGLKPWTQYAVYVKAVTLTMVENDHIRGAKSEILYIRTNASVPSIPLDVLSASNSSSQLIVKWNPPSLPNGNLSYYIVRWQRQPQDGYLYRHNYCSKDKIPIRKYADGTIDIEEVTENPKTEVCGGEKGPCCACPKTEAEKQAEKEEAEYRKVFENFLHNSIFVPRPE", "sequence (P08069 741-1367 limits assumed)": "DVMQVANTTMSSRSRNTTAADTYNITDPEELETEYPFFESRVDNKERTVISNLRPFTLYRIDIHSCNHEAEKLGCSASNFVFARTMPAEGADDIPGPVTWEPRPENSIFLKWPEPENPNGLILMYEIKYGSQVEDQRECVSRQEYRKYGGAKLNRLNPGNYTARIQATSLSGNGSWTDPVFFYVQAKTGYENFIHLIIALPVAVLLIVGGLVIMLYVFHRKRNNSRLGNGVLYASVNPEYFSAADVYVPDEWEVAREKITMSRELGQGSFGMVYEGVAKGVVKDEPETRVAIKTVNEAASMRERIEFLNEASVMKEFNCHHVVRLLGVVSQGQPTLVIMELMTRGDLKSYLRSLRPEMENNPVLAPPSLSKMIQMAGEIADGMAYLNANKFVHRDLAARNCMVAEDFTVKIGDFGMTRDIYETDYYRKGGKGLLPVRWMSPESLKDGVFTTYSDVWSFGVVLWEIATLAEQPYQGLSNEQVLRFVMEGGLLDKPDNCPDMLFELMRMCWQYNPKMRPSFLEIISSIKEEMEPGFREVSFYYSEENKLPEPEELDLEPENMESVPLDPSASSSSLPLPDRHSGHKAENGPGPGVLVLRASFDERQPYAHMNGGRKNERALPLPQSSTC", "assay": "Selectivity interaction (KinomeScan (DiscoverX)) EUB0000655a IGF1R", "conditions": "at 10 µM"}, "[2]": {"molecular_target": "Casein kinase I isoform delta (Homo sapiens, UniProt P48730)", "sequence (P48730 whole entry, looked up, canonical isoform)": "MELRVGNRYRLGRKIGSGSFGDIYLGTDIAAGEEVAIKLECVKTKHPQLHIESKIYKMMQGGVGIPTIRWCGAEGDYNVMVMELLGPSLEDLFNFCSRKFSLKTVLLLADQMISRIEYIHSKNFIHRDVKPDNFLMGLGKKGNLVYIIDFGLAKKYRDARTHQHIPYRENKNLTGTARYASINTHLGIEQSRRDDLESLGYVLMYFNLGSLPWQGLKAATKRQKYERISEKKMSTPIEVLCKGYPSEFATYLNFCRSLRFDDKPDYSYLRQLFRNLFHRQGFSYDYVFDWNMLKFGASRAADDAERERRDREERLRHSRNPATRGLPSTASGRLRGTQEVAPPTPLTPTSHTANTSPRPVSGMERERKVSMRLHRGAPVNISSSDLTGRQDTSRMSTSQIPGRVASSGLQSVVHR", "assay": "Selectivity interaction (Kinase panel (DSF assay)) EUB0001559a CSNK1D"}, "[3]": {"molecular_target": "T1, Testis-specific serine/threonine-protein kinase 1 (Homo sapiens) (UniProt Q9BXA7)", "T1 sequence (whole entry)": "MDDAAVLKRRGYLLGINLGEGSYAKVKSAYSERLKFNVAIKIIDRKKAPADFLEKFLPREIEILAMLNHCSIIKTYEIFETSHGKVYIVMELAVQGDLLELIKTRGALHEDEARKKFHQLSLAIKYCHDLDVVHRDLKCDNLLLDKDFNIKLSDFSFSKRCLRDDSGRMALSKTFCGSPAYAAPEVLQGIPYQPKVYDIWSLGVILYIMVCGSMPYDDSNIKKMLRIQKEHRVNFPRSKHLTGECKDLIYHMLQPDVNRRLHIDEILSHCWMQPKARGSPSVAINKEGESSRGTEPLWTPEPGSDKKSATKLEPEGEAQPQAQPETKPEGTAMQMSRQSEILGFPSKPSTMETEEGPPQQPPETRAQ", "assay": "Selectivity interaction (KinomeScan (DiscoverX)) EUB0001079a TSSK1B", "conditions": "at 1 µM"}, "[4]": {"molecular_target": "Phosphorylase b kinase gamma catalytic chain, skeletal muscle/heart isoform (Homo sapiens) (UniProt Q16816)", "sequence (Q16816 whole entry, looked up, canonical isoform)": "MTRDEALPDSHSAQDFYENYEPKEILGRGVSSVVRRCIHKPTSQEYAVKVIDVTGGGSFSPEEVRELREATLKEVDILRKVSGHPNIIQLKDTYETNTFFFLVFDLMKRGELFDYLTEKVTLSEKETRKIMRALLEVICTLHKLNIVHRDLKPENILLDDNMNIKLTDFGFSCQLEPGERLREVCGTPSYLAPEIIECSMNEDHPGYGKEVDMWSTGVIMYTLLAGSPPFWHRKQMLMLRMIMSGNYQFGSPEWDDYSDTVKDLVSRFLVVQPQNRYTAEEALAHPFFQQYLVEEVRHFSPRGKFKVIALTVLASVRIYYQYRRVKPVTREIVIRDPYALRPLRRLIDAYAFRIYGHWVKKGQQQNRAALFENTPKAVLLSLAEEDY", "assay": "Selectivity interaction (KinomeScan (DiscoverX)) EUB0000607a PHKG1", "conditions": "at 10 µM"}, "[5]": {"molecular_target": "T2, Dual serine/threonine and tyrosine protein kinase (Homo sapiens) (UniProt Q6XUX3)", "T2 sequence (whole entry)": "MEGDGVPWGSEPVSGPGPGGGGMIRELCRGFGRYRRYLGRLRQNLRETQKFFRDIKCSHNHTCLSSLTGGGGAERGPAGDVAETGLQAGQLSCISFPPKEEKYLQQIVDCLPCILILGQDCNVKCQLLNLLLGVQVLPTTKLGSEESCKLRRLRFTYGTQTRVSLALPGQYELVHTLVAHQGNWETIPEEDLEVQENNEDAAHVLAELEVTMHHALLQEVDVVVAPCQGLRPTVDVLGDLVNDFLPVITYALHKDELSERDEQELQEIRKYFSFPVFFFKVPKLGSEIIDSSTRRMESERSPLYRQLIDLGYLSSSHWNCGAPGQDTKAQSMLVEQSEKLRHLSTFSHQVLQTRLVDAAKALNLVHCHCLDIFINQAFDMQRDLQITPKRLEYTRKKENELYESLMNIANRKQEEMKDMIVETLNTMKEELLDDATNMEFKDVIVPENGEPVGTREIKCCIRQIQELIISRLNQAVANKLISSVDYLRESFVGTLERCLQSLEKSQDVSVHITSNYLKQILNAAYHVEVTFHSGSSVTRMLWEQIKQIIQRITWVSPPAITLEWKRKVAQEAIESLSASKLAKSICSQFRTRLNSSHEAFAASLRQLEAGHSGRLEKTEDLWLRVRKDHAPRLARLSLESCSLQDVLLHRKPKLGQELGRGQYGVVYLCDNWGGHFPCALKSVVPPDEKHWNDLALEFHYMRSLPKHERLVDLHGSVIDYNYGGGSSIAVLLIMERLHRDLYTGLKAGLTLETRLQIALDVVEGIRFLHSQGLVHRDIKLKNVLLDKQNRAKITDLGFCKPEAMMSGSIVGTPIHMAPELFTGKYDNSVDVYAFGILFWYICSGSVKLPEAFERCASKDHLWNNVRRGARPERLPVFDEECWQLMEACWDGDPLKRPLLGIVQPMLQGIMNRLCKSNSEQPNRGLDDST", "assay": "Selectivity interaction (KinomeScan (DiscoverX)) EUB0000607a DSTYK", "conditions": "at 10 µM"}, "[6]": {"molecular_target": "T3, Mitogen-activated protein kinase kinase kinase kinase 3 (Homo sapiens) (UniProt Q8IVH8)", "T3 sequence (whole entry)": "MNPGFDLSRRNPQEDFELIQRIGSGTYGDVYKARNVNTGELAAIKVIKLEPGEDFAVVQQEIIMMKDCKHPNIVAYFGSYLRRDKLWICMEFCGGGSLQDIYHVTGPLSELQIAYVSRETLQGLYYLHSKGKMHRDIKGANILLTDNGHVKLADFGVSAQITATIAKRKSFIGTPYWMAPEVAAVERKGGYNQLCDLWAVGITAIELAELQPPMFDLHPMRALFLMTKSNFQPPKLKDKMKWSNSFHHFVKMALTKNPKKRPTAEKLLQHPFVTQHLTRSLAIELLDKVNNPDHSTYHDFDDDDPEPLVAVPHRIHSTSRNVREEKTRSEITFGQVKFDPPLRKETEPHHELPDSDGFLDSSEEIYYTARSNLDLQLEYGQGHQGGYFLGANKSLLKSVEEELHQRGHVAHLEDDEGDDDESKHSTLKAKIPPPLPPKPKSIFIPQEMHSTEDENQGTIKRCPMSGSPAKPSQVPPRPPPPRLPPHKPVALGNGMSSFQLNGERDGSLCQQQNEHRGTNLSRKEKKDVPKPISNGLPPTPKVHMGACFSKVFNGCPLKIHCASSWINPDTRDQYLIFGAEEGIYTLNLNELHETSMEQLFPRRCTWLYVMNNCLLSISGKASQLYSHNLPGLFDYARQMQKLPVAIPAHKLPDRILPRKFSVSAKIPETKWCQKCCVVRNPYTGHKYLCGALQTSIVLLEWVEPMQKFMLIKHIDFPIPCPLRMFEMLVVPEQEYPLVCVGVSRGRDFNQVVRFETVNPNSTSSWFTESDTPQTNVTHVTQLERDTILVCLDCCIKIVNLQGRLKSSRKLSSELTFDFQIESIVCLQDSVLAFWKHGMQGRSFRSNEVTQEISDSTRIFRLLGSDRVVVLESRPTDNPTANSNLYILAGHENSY", "assay": "Selectivity interaction (KinomeScan (DiscoverX)) EUB0000595a MAP4K3", "conditions": "at 10 µM"}, "[7]": {"molecular_target": "Tyrosine-protein kinase CSK (Homo sapiens) (UniProt P41240)", "sequence (P41240 2-450 limits assumed)": "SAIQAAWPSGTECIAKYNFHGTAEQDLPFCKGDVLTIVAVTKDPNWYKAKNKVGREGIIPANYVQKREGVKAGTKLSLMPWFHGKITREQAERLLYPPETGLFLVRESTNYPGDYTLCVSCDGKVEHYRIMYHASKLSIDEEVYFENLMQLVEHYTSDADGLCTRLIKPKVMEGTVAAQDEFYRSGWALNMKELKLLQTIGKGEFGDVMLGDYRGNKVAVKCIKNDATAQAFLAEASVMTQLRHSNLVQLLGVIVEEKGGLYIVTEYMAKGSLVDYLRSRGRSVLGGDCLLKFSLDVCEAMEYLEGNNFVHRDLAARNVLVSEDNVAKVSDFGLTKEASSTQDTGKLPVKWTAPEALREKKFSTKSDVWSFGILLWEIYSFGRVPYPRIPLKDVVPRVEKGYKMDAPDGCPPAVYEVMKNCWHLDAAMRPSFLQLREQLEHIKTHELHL", "assay": "Selectivity interaction (ActivX KiNativ screen (ex vivo kinase selectivity in human PBMCs)) EUB0001619a CSK", "type": "cell-based", "conditions": "PBMC, at 1 µM"}},
  "data": [
    {"smiles": "CN(C)CCOc1ccc(-c2nc(-c3ccncc3)c(-c3ccc4c(c3)CC/C4=N\\O)[nH]2)cc1", "values": [
      {"measurement": "% of control", "setting": "[1]", "result": 100, "unit": "%"}
    ]},
    {"smiles": "CN(C(=O)c1cnn2cccnc12)c1cc2c(cc1N1CCOCC1)C(=O)N(C[C@@H](F)C(C)(C)O)C2", "values": [
      {"measurement": "dTM", "setting": "[2]", "result": -0.9, "unit": "K"}
    ]},
    {"smiles": "Nc1cnc(N2CCc3cc(S(=O)(=O)Nc4c(F)cc(Cl)cc4F)cc(N4CCCC4=O)c32)nc1", "note": "[TP-020n]", "values": [
      {"measurement": "% of control", "setting": "[3]", "result": 100, "unit": "%"}
    ]},
    {"smiles": "CNC(=O)Nc1ccc(-c2nc(N3CC4CCC(C3)O4)c3cnn(C4CCC5(CC4)OCCO5)c3n2)cc1", "values": [
      {"measurement": "% of control", "setting": "[4]", "result": 100, "unit": "%"},
      {"measurement": "% of control", "setting": "[5]", "result": 100, "unit": "%"}
    ]},
    {"smiles": "COCC(=O)NC/C=C/c1ccc2ncnc(Nc3ccc(Oc4ccc(C)nc4)c(C)c3)c2c1", "note": "[CP-724714]", "values": [
      {"measurement": "% of control", "setting": "[6]", "result": 80, "unit": "%"}
    ]},
    {"smiles": "N#Cc1cccc(-c2c[nH]c3ncnc(N4CCOCC4)c23)c1", "values": [
      {"measurement": "% of inhibition", "setting": "[7]", "result": -45, "unit": "%"}
    ]}
  ]
}
